Where no end group is shown, it is not given here.

For one assay, the system named is ApoL1. As to the kind of experiment: Spot phage ELISA, ApoL1. In kind it is binding, human. To be noted: ratio of signal for target protein over BSA background.
On to “GCKFWFWRLCKQDSDCLAGCVCAGSPPCG (also: bicyclic or more (positions not given here)) [ApoL1 EET I-II 35]”, for which the S/N is 14.1.

For “GCLFKRHFCKQDSDCLAGCVCVDQFPCG (also: bicyclic or more (positions not given here)) [ApoL1 EET I-II 21]”, the S/N amounted to 35.5.

“GCKFKRWTCKQDSDCLAGCVCEQPGMCG (also: bicyclic or more (positions not given here)) [ApoL1 EET I-II 19]”: the S/N came to 37.0.

On to “GCKFAKARCKQDSDCLAGCVCSPVRKCG (also: bicyclic or more (positions not given here)) [ApoL1 EET I-II 10]”, for which the S/N turned out to be 42.7.

In the case of “GCRFKRHKCKQDSDCLAGCVCPEMSTCG (also: bicyclic or more (positions not given here)) [ApoL1 EET I-II 15]”, the S/N stood at 40.2.

“GCRFMSHMRKRECKQDSDCLAGCVCDYQTACG (also: bicyclic or more (positions not given here)) [ApoL1 EET I-II 1]”: the S/N was determined as 70.0.

For the substance “GCKFWSRFCKQDSDCLAGCVCKNTDHCG (also: bicyclic or more (positions not given here)) [ApoL1 EET I-II 6]”, the S/N is recorded as 44.8.

Turning to “GCMFKAHWCKQDSDCLAGCVCHRSALCG (also: bicyclic or more (positions not given here)) [ApoL1 EET I-II 12]”, the S/N came out at 41.1.

For “GCMFKRYFCKQDSDCLAGCVCPHDDQCG (also: bicyclic or more (positions not given here)) [ApoL1 EET I-II 34]”, the S/N came out at 14.2.

Consider “GCGFWKWMHGCKQDSDCLAGCVCGPNGFCG (also: bicyclic or more (positions not given here)) [ApoL1 EET I-II 46]”, for which the S/N was 3.9.

As for “GCLFRRNFCKQDSDCLAGCVCEPFPECG (also: bicyclic or more (positions not given here)) [ApoL1 EET I-II 31]”, the S/N amounted to 17.5.

Turning to “GCKYKCKQDSDCLAGCVCQQQGGCG (also: bicyclic or more (positions not given here)) [ApoL1 EET I-II 14]”, the S/N worked out at 40.2.

In the case of “GCKMKKYMCKQDSDCLAGCVCHQQSKCG (also: bicyclic or more (positions not given here)) [ApoL1 EET I-II 40]”, the S/N came to 8.9.

Consider “GCKFHLWFCKQDSDCLAGCVCDPNGFCS (also: bicyclic or more (positions not given here)) [ApoL1 EET I-II 33]”, for which the S/N is 15.3.

“GCKFKEWFCKQDSDCLAGCVCEHSQSCG (also: bicyclic or more (positions not given here)) [ApoL1 EET I-II 20]”: the S/N was 36.0.

For “GCKFRLWFCKQDSYCLPGCVCGPNGFCG (also: bicyclic or more (positions not given here)) [ApoL1 EET I-II 42]”, the S/N turned out to be 7.2.

In the case of “GCKFRNWLCKQDSDCLAGCVCPWDTHCG (also: bicyclic or more (positions not given here)) [ApoL1 EET I-II 43]”, the S/N was determined as 6.6.

For the substance “GCKFRRWKCKQDSDCLAGCVCDPQGPCG (also: bicyclic or more (positions not given here)) [ApoL1 EET I-II 39]”, the S/N came to 9.9.

In the case of “GCKFRLWHCKQDSDCLAGCVCTAQPDCG (also: bicyclic or more (positions not given here)) [ApoL1 EET I-II 47]”, the S/N is 3.6.

For “GCLFKKAMGFCKQDSDCLAGCVCREMSHCG (also: bicyclic or more (positions not given here)) [ApoL1 EET I-II 3]”, the S/N turned out to be 52.4.

Turning to “GCRFRQHWCKQDSDCLAGCVCLEQPECG (also: bicyclic or more (positions not given here)) [ApoL1 EET I-II 24]”, the S/N is given as 30.3.

Consider “GCAFRRHVCKQDSDCLAGCVCDKSDGCG (also: bicyclic or more (positions not given here)) [ApoL1 EET I-II 25]”, for which the S/N was 25.7.

With “GCKFKHFLCKQDSDCLAGCVCDDLQNCG (also: bicyclic or more (positions not given here)) [ApoL1 EET I-II 9]”, the S/N came to 43.0.

Turning to “GCRFWQWRCKQDSDCLAGCVCGWDRECG (also: bicyclic or more (positions not given here)) [ApoL1 EET I-II 32]”, the S/N amounted to 17.1.

Take “GPTQSPFGQCGGIGYSGPTVCASGTTCQVLRPNFSWCLPGAS (also: bicyclic or more (positions not given here)) [ApoL1 CBD 1]”: the S/N is recorded as 21.6.

With “GCHFKVWWCKQDSDCLAGCVCDPAVICG (also: bicyclic or more (positions not given here)) [ApoL1 EET I-II 44]”, the S/N came out at 6.1.

“GCLFKQEMGTCKQDSDCLAGCVCEFQQKCG (also: bicyclic or more (positions not given here)) [ApoL1 EET I-II 16]”: the S/N is reported as 40.2.

Regarding “GCKFMNWKCKQDSDCLAGCVCTENEPCG (also: bicyclic or more (positions not given here)) [ApoL1 EET I-II 2]”, the S/N is on record as 53.2.

Turning to “GCKFWLHRYKQDSDCLAGCVCGPNVFG [ApoL1 EET I-II 4]”, the S/N was 47.1.

As to “GCMFLRHFNRCKQDSDCLAGCVCPHIPDCG (also: bicyclic or more (positions not given here)) [ApoL1 EET I-II 26]”, the S/N was 24.0.

“GCKFKCKQDSDCLAGCVCGHYDHCG (also: bicyclic or more (positions not given here)) [ApoL1 EET I-II 28]”: the S/N is given as 23.6.

Take “GCKFKRHMCKQDSDCLAGCVCTVKQNCG (also: bicyclic or more (positions not given here)) [ApoL1 EET I-II 41]”: the S/N came out at 8.3.

“GCAFQFYLCKQDSDCLAGCVCGGTQSCG (also: bicyclic or more (positions not given here)) [ApoL1 EET I-II 38]”: the S/N is reported as 11.5.

Another assay relates to Lgr5ECD-Fc.
Test: not given
Type of assay: binding, human. The conditions noted are these: ratio of signal for target protein over BSA background.
For “GCGYWYLEWFCKQDSDCLAGCVCGPNGFCG (also: bicyclic or more (positions not given here)) [Lgr5ECD-Fc EET I-II 18]”, the S/N came out at 9.9.

As for “GPTQSLFGMCGGIGYSGPTVCASGTTCQVLDPTTSQCLPGAS (also: bicyclic or more (positions not given here)) [Lgr5ECD-Fc CBD 2]”, the S/N was determined as 42.7.

Take “GPTQSOYGMCGGIGYSGPTVCASGTTCQVLDPTTSQCLPGAS (bicyclic or more) [Lgr5ECD-Fc CBD 18]”: the S/N came to 34.5.

“GPTQSVYGICGGIGYSGPTVCASGTTCQVLSPEFSQCLPGAS (also: bicyclic or more (positions not given here)) [Lgr5ECD-Fc CBD 11]”: the S/N is listed as 23.1.

For “GCRHGYWFHYWFCKQDSDCLAGCVCGPNGFCG (also: bicyclic or more (positions not given here)) [Lgr5ECD-Fc EET I-II 23]”, the S/N was found to be 3.9.

Turning to “GPTQSAFGPCGGIGYSGPTVCASGTTCQVLSPDVSRCLPGAS (also: bicyclic or more (positions not given here)) [Lgr5ECD-Fc CBD 8]”, the S/N is reported as 30.3.

As to “GCGYWYRIWFCKQDSDCLAGCVCGPNGFCG (also: bicyclic or more (positions not given here)) [Lgr5ECD-Fc EET I-II 3]”, the S/N was 43.5.

Regarding “GCGYWFYEWFCKQDSDCLAGCVCDPNGFCG (also: bicyclic or more (positions not given here)) [Lgr5ECD-Fc EET I-II 11]”, the S/N amounted to 21.7.

For “GPTQSVYGICGGIGYSGPTVCASGTTCQVLDPTTSQCLPGAS (also: bicyclic or more (positions not given here)) [Lgr5ECD-Fc CBD 12]”, the S/N was 18.9.

For “GPTQSTYGQCGGIGYSGPTVCASGTTCQVLWPALSWCLPGAS (also: bicyclic or more (positions not given here)) [Lgr5ECD-Fc CBD 1]”, the S/N was found to be 43.0.

Take “GCLFRNLRMACKQDSDCLAGCVCGPNGFCG (also: bicyclic or more (positions not given here)) [Lgr5ECD-Fc EET I-II 24]”: the S/N is 13.9.

With “GCLYLGWLCKQDSDCLAGCVCDYFWYCVHqS (bicyclic or more) [Lgr5ECD-Fc EET I-II 25]”, the S/N was 19.5.

Turning to “GCYHGYWYITWFCKQDSDCLAGCVCSQDEQCG (also: bicyclic or more (positions not given here)) [Lgr5ECD-Fc EET I-II 21]”, the S/N is on record as 5.1.

For the substance “GCGYWWRTWFCKQDSDCLAGCVCGPNGFCG (also: bicyclic or more (positions not given here)) [Lgr5ECD-Fc EET I-II 13]”, the S/N is given as 17.1.

With “GPTQSAFGPCGGIGYSGPTVCASGTTCQVLSPDVSQCLPGAS (also: bicyclic or more (positions not given here)) [Lgr5ECD-Fc CBD 6]”, the S/N was found to be 36.0.

Regarding “GPTQSQYGLCGGIGYSGPTVCASGTTCQVLDPTTSQCLPGAS (also: bicyclic or more (positions not given here)) [Lgr5ECD-Fc CBD 15]”, the S/N was found to be 8.9.

Regarding “GPTQSQYGICGGIGYSGPTVCASGTTCQVLSPDWSQCLPGAS (also: bicyclic or more (positions not given here)) [Lgr5ECD-Fc CBD 9]”, the S/N is given as 23.7.

In the case of “GPTQSHYGLCGGIGYSGPTVCASGTTCQVLSPEFSQCLPGAS (also: bicyclic or more (positions not given here)) [Lgr5ECD-Fc CBD 10]”, the S/N worked out at 23.6.

With “GCGYWWKKWFCKQDSDCLAGCVCGPNSFCG (also: bicyclic or more (positions not given here)) [Lgr5ECD-Fc EET I-II 9]”, the S/N was found to be 29.2.
